Values of other authors in patent publication US6838451B1, “Methods and compositions for the prevention and treatment of inflammation, osteoarthritis, and other degenerative joint diseases” (Pharmanutrients, priority 2000, dated 2005).

Experiments:
[1] = dietary supplement

Row | Compound | toxicity [1] | excreted as exhaled carbon dioxide (of the absorbed glucosamine) | excreted in the urine (of the absorbed glucosamine) | remaining in the tissues (of the absorbed glucosamine) | absorbed from the small intestine (sulfate form)
1 | conjugated linoleic acid | nontoxic |  |  |  | 
2 | N[C@H]1C(O)O[C@H](CO)[C@@H](O)[C@@H]1O (some centres unmarked) [glucosamine] |  | 65% | 25% | 10% | over 90%
